Source: PMC8788354 (Journal of Enzyme Inhibition and Medicinal Chemistry, 2022)
Read-outs that look alike come from different tables or passages of the source.

How the values were obtained:
[1] = system: SKBR-3 (human breast cancer cell line); assay: cells; type: cell-based; details: for IC50: SRB assay, 72 h exposure, read-out: Anticancer activity IC50 (nM) ± SD, SKBR-3
[2] = system: SKOV-3 (ovarian cancer cell line); assay: cells; type: cell-based, human; details: Homo sapiens, SK-OV-3; SRB assay, 72 h exposure; read-out: Anticancer activity IC50 (nM) ± SD, SKOV-3
[3] = system: PC-3 (human prostate cancer cell line); assay: cells; type: cell-based; details: Homo sapiens; SRB assay, 72 h exposure; read-out: Anticancer activity IC50 (nM) ± SD, PC-3
[4] = system: U-87MG cells (glioblastoma cell line); assay: cells; type: cell-based, human; details: for IC50: Homo sapiens, U-87 MG, SRB assay, 72 h exposure, read-out: Anticancer activity IC50 (nM) ± SD, U-87
[5] = system: SKBR-3, SKOV-3, PC-3, U-87 cells; assay: SRB cytotoxicity assay, values summarised over cancer cell lines; type: cell-based, human
in vitro = details: human, Toxicity IC50 (nM) ± SD, HDF, healthy cell line HDF, SRB assay, 72 h exposure
[6] = system: Human Dermal Fibroblasts cell line (HDF); details: read-out: Toxicity IC50 (nM) ± SD, HDF; healthy cell line HDF, SRB assay, 72 h exposure
[7] = Homo sapiens, SKBR-3, SKOV-3, PC-3, U-87, read-out: Anticancer IC50 over the studied cancer cell lines

## C/C=C/COc1cc2c(ccc1=O)-c1c(cc(OC)c(OC)c1OC)CC[C@@H]2NC(C)=O [Compound 3e]
[1]; Homo sapiens, SK-BR-3, 72 h
  IC50: 0.94 ± 0.06 nM
[2]
  IC50: 0.98 ± 0.02 nM
[3]
  IC50: 0.96 ± 0.01 nM
[4]
  IC50: 0.95 ± 0.01 nM
[5]; [7]
  IC50: 0.94 to 0.98 nM
[5]; SI = IC50 HDF/IC50 cancer cell line
  Selectivity indexes (SIs), all studied cancer cell lines: ~2.2
[5]; SKBR-3, SKOV-3, PC-3, U-87, read-out: Anticancer IC50 over the studied cancer cell lines
  IC50: ~0.9 nM
In vitro
  IC50: 2.13 ± 0.06 nM

## C=CCCOc1ccc2c(cc1=O)[C@@H](NC(C)=O)CCc1cc(OC)c(OC)c(OC)c1-2 [Compound 4h]
[1]; Homo sapiens, SK-BR-3, 72 h
  IC50: 1.69 ± 0.05 nM
[2]
  IC50: 1.27 ± 0.16 nM
[3]
  IC50: 1.22 ± 0.03 nM
[4]
  IC50: 1.07 ± 0.12 nM
[4]; SI = IC50 HDF/IC50 U-87
  Selectivity index (SI), U-87: ~2.5
[5]; Homo sapiens, average over cancer cell lines, read-out: Average anticancer IC50
  IC50: ~1.5 nM
In vitro
  IC50: 2.71 ± 0.08 nM

## COc1cc2c(c(OC)c1OC)-c1ccc(OCc3cn(C4CC(n5cc(C)c(=O)[nH]c5=O)OC4CO)nn3)c(=O)cc1C(NC(C)=O)CC2 (stereo not shown) [Compound 6e]
[1]; Homo sapiens, SK-BR-3, 72 h
  IC50: 3.02 ± 0.31 nM
[2]
  IC50: 3.33 ± 0.11 nM
[3]
  IC50: 3.5 ± 0.49 nM
[4]
  IC50: 3.84 ± 0.02 nM
In vitro
  IC50: 5.18 ± 0.18 nM

## COc1cc2c(c(OC)c1OC)-c1ccc(OCc3cn(CCCNC4=C5C[C@@H](C)C[C@H](OC)[C@H](O)[C@@H](C)/C=C(\C)[C@H](OC(N)=O)[C@@H](OC)/C=C\C=C(/C)C(=O)NC(=CC4=O)C5=O)nn3)c(=O)cc1[C@@H](NC(C)=O)CC2 [Compound 6f]
[1]; Homo sapiens, SK-BR-3, 72 h
  IC50: 17.4 ± 0.64 nM
[2]
  IC50: 15.3 ± 0.31 nM
[3]
  IC50: 17.84 ± 0.16 nM
[4]
  IC50: 17.3 ± 0.35 nM
In vitro
  IC50: 18 ± 0.24 nM

## COc1cc2c(c(OC)c1OC)-c1ccc(=O)c(OCc3ccc(/C=C/c4ccc5ccccc5c4)cc3)cc1[C@@H](NC(C)=O)CC2 [Compound 7a]
[1]; Homo sapiens, SK-BR-3, 72 h
  IC50: 8.02 ± 0.08 nM
[2]
  IC50: 8.54 ± 0.71 nM
[3]
  IC50: 8.61 ± 0.38 nM
[4]
  IC50: 8.63 ± 0.14 nM
In vitro
  IC50: 8.19 ± 0.92 nM

## COc1cc2c(c(OC)c1OC)-c1ccc(=O)c(OCc3ccc(/C=C/c4ccccn4)cc3)cc1[C@@H](NC(C)=O)CC2 [Compound 7b]
[1]; Homo sapiens, SK-BR-3, 72 h
  IC50: 2.09 ± 0.33 nM
[2]
  IC50: 2.69 ± 0.02 nM
[3]
  IC50: 2.45 ± 0.52 nM
[4]
  IC50: 2.43 ± 0.12 nM
[5]; [7]
  IC50: 2 to 2.5 nM
[6]
  IC50: 5.11 ± 0.85 nM
In vitro
  IC50: 4 to 5 nM

## COc1cc2c(c(OC)c1OC)-c1ccc(=O)c(OCc3ccc(/C=C/c4cnc5ccccc5c4)cc3)cc1[C@@H](NC(C)=O)CC2 [Compound 7c]
[1]; Homo sapiens, SK-BR-3, 72 h
  IC50: 1.51 ± 0.02 nM
[2]
  IC50: 1.03 ± 0.09 nM
[3]
  IC50: 1.52 ± 0.01 nM
[4]
  IC50: 1.73 ± 0.09 nM
[5]; [7]
  IC50: 1.03 to 1.73 nM
In vitro
  IC50: 2.16 ± 0.6 nM

## COc1cc2c(c(OC)c1OC)-c1ccc(=O)c(OCc3ccc(/C=C/c4ccc(CNC5=C6C[C@@H](C)C[C@H](OC)[C@H](O)[C@@H](C)/C=C(\C)[C@H](OC(N)=O)[C@@H](OC)/C=C\C=C(/C)C(=O)NC(=CC5=O)C6=O)cc4)cc3)cc1[C@@H](NC(C)=O)CC2 [Compound 7d]
[1]; Homo sapiens, SK-BR-3, 72 h
  IC50: 7.22 ± 0.19 nM
[2]
  IC50: 7.04 ± 0.15 nM
[3]
  IC50: 7.49 ± 0.32 nM
[4]
  IC50: 7.06 ± 0.44 nM
In vitro
  IC50: 9.04 ± 0.29 nM

## COc1cc2c(c(OC)c1OC)-c1ccc(OCc3ccc(/C=C/c4ccc5ccccc5c4)cc3)c(=O)cc1[C@@H](NC(C)=O)CC2 [Compound 8a]
[1]; Homo sapiens, SK-BR-3, 72 h
  IC50: 6.3 ± 0.09 nM
[2]
  IC50: 6.49 ± 0.25 nM
[3]
  IC50: 6.03 ± 0.26 nM
[4]
  IC50: 6.44 ± 0.07 nM
In vitro
  IC50: 8.72 ± 0.48 nM

## COc1cc2c(c(OC)c1OC)-c1ccc(OCc3ccc(/C=C/c4ccccn4)cc3)c(=O)cc1[C@@H](NC(C)=O)CC2 [Compound 8b]
[1]; Homo sapiens, SK-BR-3, 72 h
  IC50: 2.77 ± 0.04 nM
[2]
  IC50: 2.84 ± 0.03 nM
[3]
  IC50: 2.63 ± 0.77 nM
[4]
  IC50: 2.49 ± 0.05 nM
[5]; [7]
  IC50: 2 to 2.5 nM
[6]
  IC50: 4.83 ± 0.27 nM
In vitro
  IC50: 4 to 5 nM

## COc1cc2c(c(OC)c1OC)-c1ccc(OCc3ccc(/C=C/c4cnc5ccccc5c4)cc3)c(=O)cc1[C@@H](NC(C)=O)CC2 [Compound 8c]
[1]; Homo sapiens, SK-BR-3, 72 h
  IC50: ~1 nM
[1]; SI = IC50 HDF/IC50 SKBR-3
  Selectivity index (SI), SKBR-3: ~2.6
[1]
  IC50: 1.05 ± 0.06 nM
[2]
  IC50: 1.41 ± 0.02 nM
[3]
  IC50: 1.47 ± 0.05 nM
[4]
  IC50: 1.65 ± 0.03 nM
[5]; [7]
  IC50: 1.03 to 1.73 nM
In vitro
  IC50: 2.77 ± 0.25 nM

## COc1cc2c(c(OC)c1OC)-c1ccc(OCc3ccc(/C=C/c4ccc(CNC5=C6C[C@@H](C)C[C@H](OC)[C@H](O)[C@@H](C)/C=C(\C)[C@H](OC(N)=O)[C@@H](OC)/C=C\C=C(/C)C(=O)NC(=CC5=O)C6=O)cc4)cc3)c(=O)cc1[C@@H](NC(C)=O)CC2 [Compound 8d]
[1]; Homo sapiens, SK-BR-3, 72 h
  IC50: 11.4 ± 0.15 nM
[2]
  IC50: 10.52 ± 0.05 nM
[3]
  IC50: 11 ± 0.44 nM
[4]
  IC50: 10.8 ± 0.74 nM
In vitro
  IC50: 17.9 ± 1.04 nM
